pEC50: −log10 of the molar value. Counter-ions that a name gives are not always drawn.

In the assay the target is T1, human GYS1 (glycogen synthase) (Homo sapiens, UniProt P13807).
T1 construct: made in house; host or cells: HEK293T
T1 sequence (P13807 1-737): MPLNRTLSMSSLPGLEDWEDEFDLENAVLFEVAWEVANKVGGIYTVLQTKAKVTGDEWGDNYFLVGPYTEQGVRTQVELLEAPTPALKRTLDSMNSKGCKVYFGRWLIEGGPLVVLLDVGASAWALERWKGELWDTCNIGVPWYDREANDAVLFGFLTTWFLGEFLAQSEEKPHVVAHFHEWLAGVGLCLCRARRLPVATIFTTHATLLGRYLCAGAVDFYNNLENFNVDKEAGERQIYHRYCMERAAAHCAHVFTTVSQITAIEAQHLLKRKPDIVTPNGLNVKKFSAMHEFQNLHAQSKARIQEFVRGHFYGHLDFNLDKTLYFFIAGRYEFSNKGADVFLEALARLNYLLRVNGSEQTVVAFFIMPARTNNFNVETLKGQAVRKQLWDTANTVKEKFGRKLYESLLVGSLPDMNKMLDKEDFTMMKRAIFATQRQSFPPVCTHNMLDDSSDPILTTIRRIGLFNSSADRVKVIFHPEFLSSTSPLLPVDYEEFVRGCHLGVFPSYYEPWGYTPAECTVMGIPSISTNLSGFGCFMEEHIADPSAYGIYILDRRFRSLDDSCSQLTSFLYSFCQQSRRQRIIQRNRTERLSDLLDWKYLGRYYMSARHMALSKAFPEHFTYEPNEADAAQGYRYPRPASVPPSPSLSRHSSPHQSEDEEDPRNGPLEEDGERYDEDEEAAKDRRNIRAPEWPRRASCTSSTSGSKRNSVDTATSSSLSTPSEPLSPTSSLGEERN
Put plainly: Measurement of glycogen synthase activity. In kind it is biochemical. The following applies: concentration causing 50% increase in relative activity; 100% = compound of Example 1 of WO/2011/058154 at 10 μM; 10 mM Glucose-6-phosphate; 37° C. for 25 minutes (Examples 1 to 61 and 67 to 82) or 20 minutes (Examples 62 to 66); absorbance at 340 nm. Summed up:
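Human GYS1 from transfected HEK293T cells (re-dissolved 16000×g pellet) was reacted at 37 °C for 25 or 20 min in glycylglycine pH 7.3 with glucose-6-phosphate, glycogen and UDP-glucose. PK/LDH-coupled NADH read-out at 340 nm; EC50 from activity relative to a reference activator at 10 μM final (100%).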
What is called pEC50 is −log10 of the EC50, conventionally taken in molar units. Low values mean a high EC50, high ones a low EC50. As for `COCCCN(CC(=O)O)C(=O)c1cccc(COc2ccc(-c3cc(F)c(F)cc3SC)cc2)c1` [Example 30, 2-[[3-[[4-(4,5-Difluoro-2-methylsulfanyl-phenyl)phenoxy]methyl]benzoyl]-(3-methoxypropyl)amino]acetic Acid], the pEC50 is 7.82.

Regarding `CSc1cc(F)c(F)cc1-c1ccc(OCc2cccc(C(=O)N(CCS(N)(=O)=O)CC(=O)O)c2)cc1` [Example 51, 2-[[3-[[4-(4,5-Difluoro-2-methylsulfanyl-phenyl)phenoxy]methyl]benzoyl]-(2-sulfamoylethyl)amino]acetic Acid], the pEC50 was 8.28.

Consider `CSc1cc(F)c(F)cc1-c1ccc(OCc2cccc(C(=O)N(CC(=O)O)CC3CCS(=O)(=O)C3)c2)cc1` (centres unmarked) [Example 46, 2-[[3-[[4-(4,5-Difluoro-2-methylsulfanyl-phenyl)phenoxy]methyl]benzoyl]-[(1,1-dioxothiolan-3-yl)methyl]amino]acetic Acid], for which the pEC50 is 7.60.

The compound `CSc1cc(F)c(F)cc1-c1ccc(OCc2cccc(C(=O)N(CC(=O)O)CC(=O)N3CCCC3)c2)cc1` [Example 25, 2-[[3-[[4-(4,5-Difluoro-2-methylsulfanyl-phenyl)phenoxy]methyl]benzoyl]-(2-oxo-2-pyrrolidin-1-yl-ethyl)amino]acetic Acid] had a pEC50 of 7.82.

`CSc1cc(F)c(F)cc1-c1ccc(OCc2cccc(C(=O)N(CC(=O)O)Cc3ncco3)c2)cc1` [Example 42, 2-[[3-[[4-(4,5-Difluoro-2-methylsulfanyl-phenyl)phenoxy]methyl]benzoyl]-(oxazol-2-ylmethyl)amino]acetic Acid] showed a pEC50 of 7.72.

Take `Cc1coc2c(-c3ccc(OCc4cccc(C(=O)N(CCS(C)(=O)=O)CC(=O)O)c4)cc3)cc(F)c(F)c12` [Example 14, 2-[[3-[[4-(4,5-Difluoro-3-methyl-benzofuran-7-yl)phenoxy]methyl]benzoyl]-(2-methylsulfonylethyl)amino]acetic Acid]: the pEC50 was 7.82.

On to `CCN(CC)CCN(CC(=O)O)C(=O)c1cccc(COc2ccc(-c3cc(F)c(F)cc3SC)cc2)c1` [Example 24, 2-[2-Diethylaminoethyl-[3-[[4-(4,5-difluoro-2-methylsulfanyl-phenyl)phenoxy]methyl]benzoyl]amino]acetic Acid Trifluoroacetate], for which the pEC50 was 7.96.

With `COC(C)(C)CN(CC(=O)O)C(=O)c1cccc(COc2ccc(-c3cc(F)c(F)cc3SC)cc2)c1` [Example 23, 2-[[3-[[4-(4,5-Difluoro-2-methylsulfanyl-phenyl)phenoxy]methyl]benzoyl]-(2-methoxy-2-methyl-propyl)amino]acetic Acid], the pEC50 is 7.77.
